The subject of test [1] is oxidative stress (ROS, oxidized glutathione, lipid peroxidation). The experiment in a line: Blood ROS, lung oxidized glutathione and lung lipid peroxidation in aged-injured mice. In kind it is in vivo, mouse. To be noted: for blood ROS levels: aged-injured mice. How it is done:
Oral-DMF (n=7); intranasal-DMF (n=6).
Oral-vehicle (n=5); oral-DMF (n=5); intranasal-vehicle (n=3); intranasal-DMF (n=4).
Oral-vehicle (n=5); oral-DMF, (n=5); intranasal-vehicle (n=4); intranasal-DMF (n=3).
(§1) At 3 weeks post-bleomycin administration, mice were randomly assigned to one of four treatment groups. Between 3-6 weeks post-injury, DMF or vehicle (sterile PBS) was administered daily by oral gavage (240 μg/dose in 150 μL total volume) (Table 1) using a gavage tube. In parallel, mice were anesthetized using isoflurane and administered DMF or vehicle (sterile PBS) daily by intranasal instillation (80 μg/dose in 50 μL total volume) (Table 1). The control animals received vehicle only. Dosing was based on the solubility of this compound in the vehicle in the total volume used for administration (DMF was dissolved in sterile PBS at 42° C. and sonicated for 50 min). Mice were monitored for body-weight changes and survival. Mice were removed from the study when greater than 20% weight loss was observed compared to pre-surgery (day 0) or lack of responsiveness to touch. At 6 weeks post-injury, mice were sacrificed by CO2 inhalation.
(§2) In summary, lung-targeted treatment with DMF via inhaled delivery (as compared to oral delivery) can more effectively rescue local Nrf2 expression levels and promote redox homeostasis in the lungs.

Test [2] deals with aged mice with bleomycin-induced persistent lung fibrosis. The experiment in a line: Aging murine model of bleomycin-induced persistent lung fibrosis: reversal of established fibrosis. In kind it is in vivo, mouse. To be noted: 3-6 weeks post-injury. Here is the method: as §1, with “C57BL/6 aged (18 month) female mice received an intratracheal instillation of bleomycin (0.02875 U/mouse). DMF was administered daily by oral gavage (240 μg/150 μL in sterile PBS/mouse) or intranasal instillation (80 μg/50 μL in sterile PBS/mouse) from 3-6 weeks post-injury. Lung tissue was assessed by hematoxylin and eosin (H&E) staining for histopathology and Masson's trichrome blue staining for collagen. […] At 3” for “At 3”, “CO2 inhalation. This aging model of bleomycin-induced persistent lung fibrosis enables the evaluation of therapeutic agents for their efficacy in reversing age-dependent established fibrosis. […] Using the same injury model and treatment protocol, aged mice were administered DMF or vehicle daily via intranasal delivery from 3-6 weeks post-injury.” for “CO2 inhalation.”

Test [3] has as its system IPF lung fibroblasts. Briefly: H2O2 production in IPF lung fibroblasts (Amplex Red assay). In kind it is cell-based, human. To be noted: 24 h. Here is the method: IPF lung fibroblasts were treated with DMF (1 μM) or vehicle (DMSO) followed by treatment TGF-b (2 ng/ml). H2O2 levels were evaluated at 24 h by Amplex™ Red assay.
Culture supernatant was evaluated for H2O2 levels at 24 h by Amplex™ Red assay.
Since primary mesenchymal cells isolated from IPF lungs represent a heterogeneous population of both fibroblasts and myofibroblasts “(myo)fibroblasts”, the efficacy of DMF was evaluate on both TGF-beta-induced and established profibrogenic phenotypes of these cells. To determine if DMF treatment can inhibit fibrogenic responses induced by TGF-beta, cells were pre-treated with DMF or vehicle followed by treatment with TGF-beta for 24 h.

Test [4] deals with Nrf2. Briefly: Lung Nrf2 expression in aged-injured mice (densitometric analysis). In kind it is in vivo, mouse. How it is done: Oral-vehicle (n=7); oral-DMF (n=7); intranasal-vehicle (n=4); intranasal-DMF (n=4).
as §1, §2

Test [5] deals with IPF lung fibroblasts. Briefly: Collagen-1 expression in IPF lung fibroblasts (Western blot, densitometry). In kind it is cell-based, human. To be noted: vs vehicle. The source says: Since primary mesenchymal cells isolated from IPF lungs represent a heterogeneous population of both fibroblasts and myofibroblasts “(myo)fibroblasts”, the efficacy of DMF was evaluate on both TGF-beta-induced and established profibrogenic phenotypes of these cells. […]
(In western blotting, separated proteins are transferred to a membrane and probed.)

In test [6] the test system is IPF lung fibroblasts. As to conditions: sulforaphane treatment (Nrf2 activation); cited from earlier work.
Setting [7] is: intranasal delivery, 80 μg/dose daily, vs vehicle or oral DMF.
[8] abbreviates: intranasal 80 μg/dose daily, vs vehicle and oral DMF.
Setting [9] is: oral gavage 240 μg/dose daily, aged mice.

SMILES strings stand for the structures. Where a name gives a salt, the structure may show the parent alone.

For the compound `COC(=O)/C=C/C(=O)OC` [DMF, dimethyl fumarate], in test [1] (intranasal delivery, 80 μg/dose daily), the “blood ROS levels” value was “did not impact”. Further, in test [1] (setting [7]), the lung lipid peroxidation result was “significantly reduced” and the “lung oxidized glutathione levels” value is “significantly reduced”. In addition, the “blood ROS levels” value in test [1] (oral administration, 240 μg/dose daily) was “reduced blood ROS levels”. Further, the “resolution of age-dependent established lung fibrosis (histopathology)” value in test [2] (intranasal 80 μg/dose daily, aged mice) is on record as “resulted in resolution”. Moreover, in test [2] (setting [8]), the “lung collagen deposition (Masson's trichrome)” value is reported as “reduced collagen deposition”, the “lung collagen-1 expression levels” value is “significantly decreased”, the “lung fibronectin expression levels” value was “significantly decreased” and the lung hydroxyproline levels result is on record as “decreased lung hydroxyproline levels”. In addition, in test [2] (setting [9]), the “lung fibrosis compared with vehicle-treated mice” value was “indistinguishable from vehicle-treated mice” and the “resolution of age-dependent established lung fibrosis” value is recorded as “failed to promote the resolution”. Further, the “TGF-beta-induced production of ROS, specifically H2O2” value in test [3] (DMF 1 μM pre-treatment, then TGF-b 2 ng/ml, vs vehicle (DMSO)) is listed as “significantly reduced”. Further, the “production of H2O2 (established pro-fibrotic phenotype)” value in test [3] (DMF 1 μM, no TGF-beta, culture supernatant, vs vehicle) was “significantly inhibited”. Further, the “lung Nrf2 expression levels” value in test [4] (intranasal delivery, 80 μg/dose daily, aged-injured mice) is “significantly increased”. Besides, in test [4] (oral administration, 240 μg/dose daily, aged mice with established fibrosis), the “lung Nrf2 expression levels” value is “failed to rescue”. In addition, in test [5] (DMF 1 μM pre-treatment, then TGF-b 2 ng/ml, 48 h), the “TGF-beta-induced expression of collagen-1” value is given as “inhibition”. For the same compound, the “production of collagen-1 (established pro-fibrotic phenotype)” value in test [5] (DMF 1 μM, no TGF-beta, 24 h) is reported as “significantly inhibited”.

As to `C[S+]([O-])CCCCN=C=S` (stereo not shown) [sulforaphane], in test [6], the “antioxidant responses in IPF lung fibroblasts” value is listed as “restored antioxidant responses” and the “dedifferentiation of IPF myofibroblast” value is recorded as “promoted dedifferentiation”.

The record behind these values is US20250134845A1, “Fumaric Acid Esters, Inhalation Administration Methods, Pharmaceutical Uses and Compositions” (Emory University, priority 2022, published 2025).
